Patent US20250367283A1, “MEVALONATE PATHWAY INHIBITOR AS HIGHLY-EFFICIENT VACCINE ADJUVANT” (Tsinghua University, priority 2015, published 2025)

How the values were obtained:
Vγ9Vδ2 T cells = experiment: Expansion of Vγ9Vδ2 T cells from PBMCs; format: cell-based, human; settings: 4 μM bisphosphonate, 200 U/mL rIL-2, day 12
Description: Human peripheral blood mononuclear cells (PBMCs) were prepared from healthy volunteers by Ficoll-Hypaque density gradient centrifugation. […] Cells were harvested on day 12 and stained with FITC-anti-CD3 (Miltenyi Biotec) and PE-anti-[…] (Miltenyi Biotec) monoclonal antibodies. Flow cytometry was used for detection. Prism 5.0 was used to analyze the data.

[1] = test system: anti-OVA IgM and IgG antibodies; experiment: Combined adjuvant effect of FPPS inhibitor and TLR agonist, OVA titer; format: in vivo, mice
Description: Two compounds, TH-Z93 and Imiquimod, were formulated at a concentration of 4 mg/ml, and OVA antigen at a concentration of 10 mg/ml. When used alone, 5 μl of TH-Z93 or imiquimod was added as an adjuvant and mixed with 10 μl of antigen and 5 μl of PBS. When two adjuvants were used in combination, each of the adjuvants were added in an amount of 5 μl and mixed with 10 μl of antigen, and the total volumes were 20 μl. The mice used are of C57B/6 strain. An equal volume of PBS without any adjuvant was used for mice in the control group. The mice was injected at the soles of the right feet. On Day 7 and Day 14 after immunization, blood was taken from the mice's orbits, and 100 μl was taken for each mouse. The obtained blood was left at 4° C. overnight, and then the serum was separated. The titers of anti-OVA IgM and IgG antibodies in the serum were determined.

[2] = molecular target: HsGGPPS (humanized geranylgeranyl pyrophosphate synthase) (Homo sapiens (Human), UniProt O95749); experiment: HsGGPPS enzyme inhibition test; format: biochemical
Sequence of HsGGPPS (humanized geranylgeranyl pyrophosphate synthase) (O95749 whole entry, looked up): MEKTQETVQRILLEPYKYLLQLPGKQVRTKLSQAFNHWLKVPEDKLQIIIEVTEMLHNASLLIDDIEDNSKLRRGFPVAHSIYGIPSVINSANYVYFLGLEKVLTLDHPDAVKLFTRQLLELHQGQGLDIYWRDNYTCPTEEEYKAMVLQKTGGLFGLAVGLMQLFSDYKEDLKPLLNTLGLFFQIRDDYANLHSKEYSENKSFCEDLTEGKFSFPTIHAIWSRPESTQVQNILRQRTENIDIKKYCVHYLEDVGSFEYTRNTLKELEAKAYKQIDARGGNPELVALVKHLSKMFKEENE
Description: The inhibitory activities of compounds TH-Z144 and TH-Z145 on GGPPS (geranylgeranyl pyrophosphate synthase) were tested by referring to the expression and purification method for HsGGPPS (humanized geranylgeranyl pyrophosphate synthase) in the reference (Szabo, C. M., et al., Inhibition of Geranylgeranyl Diphosphate Synthase by Bisphosphonates and Diphosphates: A Potential Route to New Bone Antiresorption and Antiparasitic Agents. Journal of Medicinal Chemistry, 2002. 45 (11): p. 2185-2196.) and the method for testing enzyme activity in the reference (Zhang, Y., et al., Lipophilic Bisphosphonates as Dual Farnesyl/Geranylgeranyl Diphosphate Synthase Inhibitors: An X-ray and NMR Investigation. Journal of the American Chemical Society, 2009. 131 (14): p. 5153-5162.) The data of the activity test were as follows: […]

CCCCCCOc1ccc2c(c1)ncn2CC(O)(P(=O)(O)O)P(=O)(O)O [TH-Z80]
amplification effect on Vγ9Vδ2 T cells (Vγ9Vδ2 T cells): best amplification effect on Vγ9Vδ2 T cells

CCCCCCOc1ccnc(NC(P(=O)(O)O)P(=O)(O)O)c1 [TH-Z93, (((4-(hexyloxy)pyridin-2-yl)amino)methylene)bisphosphonic acid]
antibody titers vs PBS control, adjuvant used alone ([1]; soles of right feet): significant high titers | antibody titers vs imiquimod alone ([1]; used alone): significantly superior to those of mice treated with imiquimod alone

(2-(3-(octyloxy)phenyl)ethane-1,1-diyl)bisphosphonic acid [TH-Z145]
IC50 (inhibition of GGPPS) [2]: effectively inhibit the activity of GGPPS | IC50 ([2]; read-out: IC50 (inhibition of GGPPS)): 660 nM
